Test results published in patent US6277847A, “Herbicidal isoindolinonyl-and 3,4-dihydroisoquinolonyl-substituted heterocycles” (FMC Corporation, priority 2000, dated 2001).

Key:
Assay type in all cases: in vivo
[1] = system: green foxtail (Setaria viridis); assay: pre-emergence herbicidal activity, green foxtail; conditions: 1 kg/Ha, about fourteen days, read-out: pre-emergence herbicidal activity (% control) SETVI
Summary of the method: (§1)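 Seeds sown in flats of soil mix were sprayed pre-emergence with test compound in water/acetone at 1 kg/Ha. Flats were held about fourteen days beside untreated controls, then phytotoxicity was scored as percent control (0 = no effect, 100 = complete control).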

[2] = system: field corn (Zea mays var. Pioneer 3732); assay: pre-emergence herbicidal activity, corn; conditions: 1 kg/Ha, about fourteen days, read-out: pre-emergence herbicidal activity (% control) CRN
Summary of the method: as §1

[3] = system: common cocklebur (Xanthium strumarium L.); assay: post-emergence herbicidal activity, cocklebur; conditions: 1 Kg/Ha, about fourteen days, read-out: post-emergence herbicidal activity (% control) XANPE
Summary of the method: (§2)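 Application rate was 1 Kg/Ha, sprayed post-emergence from a water/acetone solution onto flat-grown plants. Injury is expressed as percent control, 100 meaning complete control, assessed roughly two weeks later.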

[4] = system: green foxtail (Setaria viridis); assay: post-emergence herbicidal activity, green foxtail; conditions: 1 Kg/Ha, about fourteen days, read-out: post-emergence herbicidal activity (% control) SETVI
Summary of the method: as §2

[5] = system: morningglory (Ipomea lacunosa or Ipomea hederacea); assay: pre-emergence herbicidal activity, morningglory; conditions: Ipomoea, 1 kg/Ha, about fourteen days, read-out: pre-emergence herbicidal activity (% control) IPOSS
Summary of the method: as §1

[6] = system: blackgrass (Aloepecurus myosuroides); assay: post-emergence herbicidal activity, blackgrass; conditions: Alopecurus myosuroides, 1 Kg/Ha, about fourteen days, read-out: post-emergence herbicidal activity (% control) ALOMY
Experimental: This example sets forth the methods of herbicidal testing conducted on the specific compounds set forth below. Specifically, the compounds referenced below were tested for pre- and post-emergence herbicidal activity using a variety of crops and weeds. The test plants include, but are not limited to, soybean (Glycine max -- var. Winchester), field corn (Zea mays var. Pioneer 3732), wheat (Triticum aestivum var. Lew), morningglory (Ipomea lacunosa or Ipomea hederacea), velvetleaf (Abutilon theophrasti), green foxtail (Setaria viridis), Johnsongrass (Sorghum halepense), blackgrass (Aloepecurus myosuroides), common chickweed (Stellaria media), and common cocklebur (Xanthium strumarium L.).
In the post-emergence test, seeds of the plant species named above were planted in flats containing the appropriate soil mixture where they were maintained to allow the seeds to germinate. When the plants in these flats reached the proper stage of growth, flats for the pre-emergence tests were planted in a like manner. The flats containing the post-emergence and pre-emergence test plant species were then sprayed with an appropriately concentrated water/acetone solution of test compound. Once treated the flats were maintained, along with untreated controls, for about fourteen days. All treated plants were then examined for phytotoxicity, which was expressed as percent control where 0 is no effect and 100 is complete control. Effective rates of application for the compounds of the present invention range from 0.001 to 3 kg/ha, more likely from […] to 1 Kg/ha.
Herbicidal activity data at selected application rates are in Tables 4 and 5. The test compounds are identified by numbers correspond to those in Table 1.
SOY is soybean, WHT is wheat, CRN is corn, ABUTH is velvetleaf, IPOSS is
morningglory, STEME is chickweed, XANPE is cocklebur, ALOMY is blackgrass,
Rate of application of test compound is 1 Kg/Ha. The definitions as shown under Table 4 apply to Table 5.

[7] = system: velvetleaf (Abutilon theophrasti); assay: pre-emergence herbicidal activity, velvetleaf; conditions: 1 kg/Ha, about fourteen days, read-out: pre-emergence herbicidal activity (% control) ABUTH
Summary of the method: as §1

[8] = system: wheat (Triticum aestivum var. Lew); assay: post-emergence herbicidal activity, wheat; conditions: 1 Kg/Ha, about fourteen days, read-out: post-emergence herbicidal activity (% control) WHT
Summary of the method: as §2

[9] = system: wheat (Triticum aestivum var. Lew); assay: pre-emergence herbicidal activity, wheat; conditions: 1 kg/Ha, about fourteen days, read-out: pre-emergence herbicidal activity (% control) WHT
Summary of the method: as §1

[10] = system: morningglory (Ipomea lacunosa or Ipomea hederacea); assay: post-emergence herbicidal activity, morningglory; conditions: Ipomoea, 1 Kg/Ha, about fourteen days, read-out: post-emergence herbicidal activity (% control) IPOSS
Summary of the method: as §2

[11] = system: common chickweed (Stellaria media); assay: pre-emergence herbicidal activity, chickweed; conditions: 1 kg/Ha, about fourteen days, read-out: pre-emergence herbicidal activity (% control) STEME
Summary of the method: as §1

[12] = system: soybean (Glycine max -- var. Winchester); assay: pre-emergence herbicidal activity, soybean; conditions: 1 kg/Ha, about fourteen days, read-out: pre-emergence herbicidal activity (% control) SOY
Summary of the method: as §1

[13] = system: soybean (Glycine max -- var. Winchester); assay: post-emergence herbicidal activity, soybean; conditions: 1 Kg/Ha, about fourteen days, read-out: post-emergence herbicidal activity (% control) SOY
Summary of the method: as §2

[14] = system: blackgrass (Aloepecurus myosuroides); assay: pre-emergence herbicidal activity, blackgrass; conditions: Alopecurus myosuroides, 1 kg/Ha, about fourteen days, read-out: pre-emergence herbicidal activity (% control) ALOMY
Summary of the method: as §1

[15] = system: common chickweed (Stellaria media); assay: post-emergence herbicidal activity, chickweed; conditions: 1 Kg/Ha, about fourteen days, read-out: post-emergence herbicidal activity (% control) STEME
Summary of the method: as §2

[16] = system: field corn (Zea mays var. Pioneer 3732); assay: post-emergence herbicidal activity, corn; conditions: 1 Kg/Ha, about fourteen days, read-out: post-emergence herbicidal activity (% control) CRN
Summary of the method: as §2

[17] = system: velvetleaf (Abutilon theophrasti); assay: post-emergence herbicidal activity, velvetleaf; conditions: 1 Kg/Ha, about fourteen days, read-out: post-emergence herbicidal activity (% control) ABUTH
Summary of the method: as §2

[18] = system: common cocklebur (Xanthium strumarium L.); assay: pre-emergence herbicidal activity, cocklebur; conditions: 1 kg/Ha, about fourteen days, read-out: pre-emergence herbicidal activity (% control) XANPE
Summary of the method: as §1

| SMILES | activity at 1000 g/ha [1] [%] | activity at 1000 g/ha [2] [%] | activity at 1000 g/ha [3] [%] | activity at 1000 g/ha [4] [%] | activity at 1000 g/ha [5] [%] | activity at 1000 g/ha [6] [%] | activity at 1000 g/ha [7] [%] | activity at 1000 g/ha [8] [%] | activity at 1000 g/ha [9] [%] | activity at 1000 g/ha [10] [%] | activity at 1000 g/ha [11] [%] | activity at 1000 g/ha [12] [%] | activity at 1000 g/ha [13] [%] | activity at 1000 g/ha [14] [%] | activity at 1000 g/ha [15] [%] | activity at 1000 g/ha [16] [%] | activity at 1000 g/ha [17] [%] | activity at 1000 g/ha [18] [%] |
| --- | --- | --- | --- | --- | --- | --- | --- | --- | --- | --- | --- | --- | --- | --- | --- | --- | --- | --- |
| Cn1c(C(F)(F)F)cc(=O)n(-c2ccc(Cl)c3c2CN(C2CCCC2)C3=O)c1=O [Compound 76] | 100 | 95 | 100 | 100 | 100 | 100 | 100 | 100 | 80 | 100 | 100 | 100 | 95 | 90 | 100 | 100 | 100 | 100 |
| Cn1c(C(F)(F)F)cc(=O)n(-c2ccc(Cl)c3c2CN(CCF)C3=O)c1=O [Compound 78] | 100 | 100 | 100 | 100 | 100 | 100 | 100 | 100 | 100 | 100 | 100 | 100 | 100 | 100 | 100 | 100 | 100 | 100 |
| CC(C)N1Cc2c(c(Cl)cc(Cl)c2N2C(=O)C3=C(CCCC3)C2=O)C1=O [Compound 82, 1-[5,7-dichloro-2-(1-methylethyl)isoindolin-1-on-4-yl]-3,4,5,6-tetrahydrophthalimide] | 100 | 80 | 100 | 100 | 100 | 100 | 100 | 40 | 60 | 95 | 100 | 70 | 60 | 70 | 85 | 65 | 100 | 95 |
| Cn1c(C(F)(F)F)cc(=O)n(-c2ccc(Cl)c3c2CN(C2CCCCC2)C3=O)c1=O [Compound 77] | 100 | 90 | 100 | 100 | 100 | 100 | 100 | 80 | 80 | 100 | 100 | 100 | 95 | 95 | 100 | 100 | 100 | 100 |
| CCn1c(C(F)(F)F)cc(=O)n(-c2ccc(Cl)c3c2CN(C(C)C)C3=O)c1=O [Compound 71] | 100 | 100 | 70 | 100 | 100 | 100 | 100 | 80 | 100 | 95 | 100 | 100 | 90 | 90 | 100 | 90 | 95 | 100 |
